# In publication PMC9616531 (Plant Biotechnology Journal, 2022):
# Test system: UGT72B23
# Assay: UDP-Glo glycosyltransferase assay
# Format: biochemical, Camellia sinensis
# Settings: read-out: apparent Km; UDP-glucose co-substrate, pH 7.5, 40 °C
row,Km,Structure (SMILES)
1,31.2 µM,O=C(O[C@@H]1Cc2c(O)cc(O)cc2O[C@@H]1c1ccc(O)c(O)c1)c1cc(O)c(O)c(O)c1 [epicatechin gallate]
2,27.9 µM,O=C(O[C@@H]1Cc2c(O)cc(O)cc2O[C@@H]1c1cc(O)c(O)c(O)c1)c1cc(O)c(O)c(O)c1 [epigallocatechin gallate]
